In patent US6008188A, “Cytokine potentiator and pharmaceutical formulation for cytokine administration” (Kanebo Limited, priority 1994, dated 1999):

Legend:
male ICR mice = experiment: Acute Toxicity Test; details: oral, 5 g/kg of body weight; observed for 7 days
Method: Water, or an aqueous solution of N-Methyl-L-Serine (this was prepared to have a concentration of 5 g/kg of body weight of test animal, as a sample) was orally administered to male ICR mice (5 weeks-age; body weight, 24 to 28 g; 5 mice in one group), in an amount of […] of body weight.

[1] = system: Normal human fibroblasts [CCD45SK (ATCC CRL 1506)]; experiment: Response to PDGF: procollagenase production by normal human fibroblasts (Test Example 11); format: cell-based; details: 1 mM, 6 days, 30 ng/ml PDGF-BB
Method: Normal human fibroblasts [CCD45SK (ATCC CRL 1506) as prepared from the skin of a person] were suspended at a cell density of 1×10^5 cells/ml in the MEM medium, comprising 10% (V/V) FBS and 1% (V/V) non-essential amino acids (produced by Dai-Nippon Pharmaceutical Co.). The suspended cells were seeded into each well of a 12-well plate in an amount of 0.8 ml/well (corresponding to 8×10^4 cells/well) and incubated in a saturated aqueous vapor with 5% CO2 at 37° C.

healthy panelists = details: in vivo
Method: Aqueous solutions of N-methyl-L-serine, ethanolamine and N-methylethanolamine that had been adjusted to have a pH 7 with hydrochloric acid were used as test samples. These test samples were applied to 19 healthy panelists.
One hour and 24 hours after the removal of the patch, the condition of the skin of each panelist was observed.

How did the deaths of mice (male ICR mice) turn out when `CN[C@@H](CO)C(=O)O` [Example 1, N-methyl-L-serine] was run?
The deaths of mice was “No mice of the test group to which N-Methyl-L-Serine was administered died”.

And the “Procollagenase Production” value ([1]; mean ± SD, n = 3)?
Its value is 4.2 ± 2.0 unit/ml.

And the activity at 1000 µM ([1]; Homo sapiens, Fibroblast, 144 h, control = 100, read-out: Response to PDGF Increment)?
The activity at 1000 µM was 690%.

And the panelists with erythema (healthy panelists)?
Its panelists with erythema is “only one panelists had minor erythema”.
